# Experiments:
# [1] = biological target: PTGR2 (Homo sapiens, UniProt Q8N8N7); experiment: MS-based (SILAC) competition of FFF probe 8 labeling of endogenous PTGR2 in HEK293T cells; assay type: binding
# Description: (§1) For gel-based experiments, cells were grown in 6-well plates to ˜90% confluence at the time of treatment. Cells were carefully washed with Dulbecco's phosphate buffered saline (DPBS) and replenished with fresh serum-free media containing indicated FFF probe, and, if applicable, competitors or DMSO vehicle (1 mL). Following incubation at 37° C. for 30 min, cells were directly exposed to 365 nm light for 10 min. For no UV experiments, cells were incubated at 4° C. for 10 min under ambient light. For MS-based experiments, cell labeling was performed in a similar manner as described above. Modifications to this protocol included using isotopically ‘light’ and ‘heavy’ SILAC cells that were grown to near complete confluence prior to treatment in 10 cm plates. In probe-versus-control probe and probe-versus-probe experiments, isotopically light cells were treated with indicated fragment probe, while the heavy cells were treated with control probe (1), or additional FFF probe to be compared, at indicated concentrations. […]
# (§2) Cells pellets were lysed in cold DPBS (100-500 µL) using a Branson Sonifier probe sonicator (10 pulses, 30% duty cycle, output setting=4). […] Protein concentration was determined using the DC Protein Assay (Bio-Rad) and absorbance read using a Tecan, Infinite F500 plate reader following manufacturer's instructions. […]
# [2] = biological target: T1, ZADH2 (Homo sapiens, UniProt Q8N4Q0); experiment: MS-based (SILAC) competition of FFF probe 8 labeling of ZADH2 in HEK293T cells; assay type: binding; settings: competition with FFF probe 8 (20 μM)
# T1 construct: endogenous in cells; host or cells: HEK293T
# T1 sequence (Q8N4Q0 1-377): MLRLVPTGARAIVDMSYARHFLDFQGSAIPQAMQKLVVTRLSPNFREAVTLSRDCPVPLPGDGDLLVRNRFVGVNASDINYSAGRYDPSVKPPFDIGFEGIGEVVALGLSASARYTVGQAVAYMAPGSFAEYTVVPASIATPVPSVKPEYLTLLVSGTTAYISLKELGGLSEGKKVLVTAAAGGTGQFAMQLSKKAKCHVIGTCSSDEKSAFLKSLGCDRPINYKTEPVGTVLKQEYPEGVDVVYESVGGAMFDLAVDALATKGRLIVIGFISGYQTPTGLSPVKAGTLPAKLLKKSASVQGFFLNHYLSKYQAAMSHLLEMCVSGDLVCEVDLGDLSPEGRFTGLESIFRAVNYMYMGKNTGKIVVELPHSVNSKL
# Description: as §1, §2
# Chain of PTGR2 (Q8N8N7 whole entry): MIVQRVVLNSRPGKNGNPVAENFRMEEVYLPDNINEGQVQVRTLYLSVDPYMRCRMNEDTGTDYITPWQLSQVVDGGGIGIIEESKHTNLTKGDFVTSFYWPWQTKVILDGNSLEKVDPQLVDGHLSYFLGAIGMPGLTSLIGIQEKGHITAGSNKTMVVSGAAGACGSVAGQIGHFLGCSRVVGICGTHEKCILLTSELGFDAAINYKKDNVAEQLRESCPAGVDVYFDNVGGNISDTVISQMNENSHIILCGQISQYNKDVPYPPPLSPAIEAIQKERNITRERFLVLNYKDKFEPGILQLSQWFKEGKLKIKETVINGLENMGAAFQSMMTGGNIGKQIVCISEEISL
smiles,measurement,setting,value
"COc1ccccc1N1CCN(C(=O)Cc2ccccc2)CC1 [Compound 22, 1-(4-(2-Methoxyphenyl)piperazin-1-yl)-2-phenylethan-1-one]",inhibition at 0.5 µM,[1]; 500 nM,~80%
same,inhibition of FFF 8 labeling of endogenous PTGR2,[1]; 5 μM,complete inhibition
same,cross-reactivity with ZADH2,[2],did not cross-react
